This is an account of results in publication PMC1764880, “Acyl-CoA-binding and self-associating properties of a recombinant 13.3 kDa N-terminal fragment of diacylglycerol acyltransferase-1 from oilseed rape” (BMC Biochemistry, 2006).

In experiment [1] the target is T1, BnDGAT1(1–116)His6 (Brassica napus, UniProt Q9XGR5).
T1 construct: gene DGAT1; N-terminal hydrophilic cytosolic fragment, residues 1-116, followed by AALE linker and C-terminal His6 (tag kept); pET26b(+), E. coli BL21(DE3), Ni-NTA purified; calculated mass 13,278 Da; self-associates to dimer and tetramer; contains peptide 21-LDRLHRRKSSSDSSN-35
T1 sequence (Q9XGR5 1-116): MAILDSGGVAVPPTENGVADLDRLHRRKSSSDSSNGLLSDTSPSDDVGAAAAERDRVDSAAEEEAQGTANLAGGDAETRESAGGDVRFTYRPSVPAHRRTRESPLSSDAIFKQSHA
In words: Lipidex-1000 competition binding against [[…]-14C]oleoyl-CoA. The conditions noted are these: 8 μM free CoA displacing 19 μM [1-14C]oleoyl-CoA, 0.2 μM protein.

In experiment [2] the target is T1, BnDGAT1(1–116)His6. In words: Lipidex-1000 radioligand binding, Scatchard plot. The conditions noted are these: read-out: dissociation constant.

`CC(C)(COP(=O)(O)OP(=O)(O)OC[C@H]1O[C@@H](n2cnc3c(N)ncnc32)[C@H](O)[C@@H]1OP(=O)(O)O)[C@@H](O)C(=O)NCCC(=O)NCCS` [CoA]: the “Lipidex-1000 competition binding against [1-14C]oleoyl-CoA” value on BnDGAT1(1–116)His6 [1] is on record as “free CoA or oleoyl-CoA was effective in displacing a similar quantity of radiolabeled ligand”. In the case of `CCCCCCCC/C=C\CCCCCCCCCCCC(=O)SCCNC(=O)CCNC(=O)[C@H](O)C(C)(C)COP(=O)(O)OP(=O)(O)OC[C@H]1O[C@@H](n2cnc3c(N)ncnc32)[C@H](O)[C@@H]1OP(=O)(O)O` [erucoyl-CoA], the Kd at BnDGAT1(1–116)His6 [2] is around 2 µM. Same read-out and setting: for `CCCCCCCC/C=C\CCCCCCCC(=O)SCCNC(=O)CCNC(=O)[C@H](O)C(C)(C)COP(=O)(O)OP(=O)(O)OC[C@H]1O[C@@H](n2cnc3c(N)ncnc32)[C@H](O)[C@@H]1OP(=O)(O)O` [oleoyl-CoA] the value was around 17 µM.
